Reference: patent US4284639A, “Combating fungi with 1-phenoxy-2-(2,4-dichlorophenyl)-1-(1,2,4-triazol-1-yl)-ethan-2-ones and -ols” (Bayer Aktiengesellschaft, priority 1977, dated 1981)
Converted amounts (≈) assume the structure as drawn. Where two headings read alike, the source gives them in different places.

Legend:
[1] = tested on: Erysiphe graminis var. hordei; assay: Shoot treatment test/powdery mildew of cereal/protective (leaf-destructive mycosis); assay type: in vivo; details: 0.025 % by weight active compound in the spray liquor; barley; after 6 days; protective
Method: (§1) To produce a suitable preparation of active compound, 0.25 part by weight of active compound was taken up in 25 parts by weight of dimethylformamide and 0.06 part by weight of alkylaryl polyglycol ether; 975 parts by weight of water were then added. The concentrate was diluted with water to the desired final concentration of the spray liquor.
To test for protective activity, single-leaved young barley plants of the Amsel variety were sprayed with the preparation of active compound until dew-moist. After drying, the barley plants were dusted with spores of Erysiphe graminis var. hordei.
After 6 days' dwell time of the plants at a temperature of 21°-22° C. and 80-90% atmospheric humidity the occurrence of mildew pustules on the plants was evaluated. The degree of infection was expressed as a percentage of the infection of the untreated control plants. 0% denoted no infection and 100% denoted the same degree of infection as in the case of the untreated control.

Puccinia recondita = assay: Shoot treatment test/cereal rust (leaf-destructive mycosis)/protective; assay type: in vivo; details: 0.025 % by weight active compound in the spray liquor; wheat; after 10 days; protective
Method: as §1, with “ether and then” for “ether;”, “were” for “were then”
To test the protective activity, one-leaved young wheat plants of the Michigan Amber variety were inoculated with a uredospore suspension of Puccinia recondita in 0.1% strength aqueous agar. After the spore suspension had dried on, the wheat plants were sprayed with the preparation of active compound until dew-moist and were placed, for incubation, in a greenhouse for 24 hours at about 20° C. and 100% relative atmospheric humidity.
After 10 days' dwell time of the plants at a temperature of 20° C. and 80-90% atmospheric humidity, the occurrence of rust pustules on the plant was evaluated. The degree of infection was expressed as a percentage of the infection of the untreated control plants. 0% denoted no infection and 100% denoted the same degree of infection as in the case of the untreated control.

Podosphaera leucotricha = assay: Podosphaera test (apple)/protective; assay type: in vivo; details: apple seedlings, 10 days after inoculation, protective
Method: (§2) Solvent: 4.7 parts by weight of acetone
(§3) Emulsifier: 0.3 part by weight of alkylaryl polyglycol ether
(§4) Water: 95 parts by weight
The amount of active compound required for the desired concentration of the active compound in the spray liquid was mixed with the stated amount of solvent, and the concentrate was diluted with the stated amount of water which contained the stated amount of emulsifier.
Young apple seedlings in the 4-6 leaf stage were sprayed with the spray liquid until dripping wet. The plants remained in a greenhouse for 24 hours at 20° C. and at a relative atmospheric humidity of 70%. They were then inoculated by dusting the conidia of the apple powdery mildew causative organism (Podosphaera leucotricha) and placed in a greenhouse at a temperature of 21°-23° C. and at a relative atmospheric humidity of about 70%.
10 days after the inoculation, the infection of the seedlings was determined. The assessment data were converted to % infection. 0% meant no infection; 100% meant that the plants were completely infected.

Erysiphe cicohiacearum = assay: Erysiphe test (cucumber)/protective; assay type: in vivo; details: cucumber plants, after 12 days, protective
Method: as §2, §3, §4
The amount of the active compound required for the desired concentration of active compound in the spray liquid was mixed with the stated amount of solvent and the concentrate was diluted with the stated amount of water containing the stated amount of emulsifier.
Young cucumber plants with about three foliage leaves were sprayed with the spray liquid until dripping wet. The cucumber plants remained in a greenhouse for 24 hours to dry. They were then, for the purpose of inoculation, dusted with conidia of the fungus Erysiphe cicohiacearum. The plants were subsequently placed in a greenhouse at 23°-24° C. and at a relative atmospheric humidity of about 75%.
After 12 days, the infection of the cucumber plants was determined. The assessment data were converted to percent infection. 0% meant no infection; 100% meant that the plants were totally infected.

Trichophyton mentagr. = assay: Anti-mycotic in vitro activity, series dilution test; assay type: cell-based, Trichophyton mentagrophytes; details: read-out: Minimum inhibitory concentration
Method: (§5) The in vitro tests were carried out in a series dilution test with germ inocula of an average of 5×10^4 germs/ml of substrate. The nutrient medium was (a) for dermatophytes and moulds: Sabouraud's milieu d'epreuve and (b) for yeasts; meat extract/glucose broth.
(§6) The incubation temperature was 28° C. and the duration of incubation was 24 to 96 hours.

Aspergillus species = assay: as above; assay type: cell-based; details: read-out: Minimum inhibitory concentration
Method: as §5, §6

Candida albicans = assay: as above; assay type: cell-based; details: read-out: Minimum inhibitory concentration
Method: as §5, §6

Microsporon felineum = assay: as above; assay type: cell-based; details: read-out: Minimum inhibitory concentration
Method: as §5, §6

Penicillium commune = assay: as above; assay type: cell-based; details: read-out: Minimum inhibitory concentration
Method: as §5, §6

Torulopsis glabrata = assay: as above; assay type: cell-based; details: Nakaseomyces glabratus; γ/ml of nutrient medium; 28° C.; 24 to 96 hours; read-out: Minimum inhibitory concentration
Method: as §5, §6

[2] = γ/ml of nutrient medium, 28° C., 24 to 96 hours

MIC (Trichophyton mentagr.; [2]) [µg/mL]	MIC (Aspergillus species; [2]) [µg/mL]	MIC (Candida albicans; [2]) [µg/mL]	MIC (Microsporon felineum; [2]) [µg/mL]	MIC (Penicillium commune; [2]) [µg/mL]	SMILES	Infection in % of the untreated control [1] [%]	other results
					CC(C)(C)C(=O)C(Oc1ccc(-c2ccc(Cl)cc2)cc1)n1cncn1 (stereo not shown) [A, reference compound]	55.0	
					CC(C)(C)C(=O)C(Oc1ccc(-c2ccccc2)cc1)n1cncn1 (stereo not shown) [B, reference compound]		Infection in % of the untreated control (Puccinia recondita): 33.8%
					CC(C)(C)C(O)C(Oc1ccc(Cl)cc1Cl)n1cncn1 (stereo not shown) [C, reference compound]		Infection in % of the untreated control (Puccinia recondita): 33.8%
4	64	8	32	> 64	Cl.OC(c1ccc(Cl)cc1Cl)C(Oc1ccc(Cl)cc1)n1cncn1 (stereo not shown) [Compound 3, 1-(4-chlorophenoxy)-2-(2,4-dichlorophenyl)-1-(1,2,4-triazol-1-yl)-ethan-2-ol hydrochloride]	7.5	Infection in % at an active compound concentration of 0.001% (Podosphaera leucotricha): 0%; Infection in % at an active compound concentration of 0.00025% (Erysiphe cicohiacearum): 6%
					O=C(c1ccc(Cl)cc1Cl)C(Oc1ccc(Cl)cc1Cl)n1cncn1 (stereo not shown) [Compound 4]	0.0	
					O=C(c1ccc(Cl)cc1Cl)C(Oc1ccc(-c2ccc(Cl)cc2)cc1)n1cncn1 (stereo not shown) [Compound 6]	16.3	
4 (≈ 9.54 µM)	64 (≈ 153 µM)	8 (≈ 19.1 µM)	32 (≈ 76.4 µM)	> 64	OC(c1ccc(Cl)cc1Cl)C(Oc1ccc(Cl)cc1Cl)n1cncn1 (stereo not shown) [Compound 14]	0.0	Infection in % at an active compound concentration of 0.001% (Podosphaera leucotricha): 0%; Infection in % at an active compound concentration of 0.00025% (Erysiphe cicohiacearum): 16%; MIC (Torulopsis glabrata): 32 µg/mL (≈ 76.4 µM)
< 1	> 64	32 (≈ 75.1 µM)	< 1	> 64	OC(c1ccc(Cl)cc1Cl)C(Oc1ccc(-c2ccccc2)cc1)n1cncn1 (stereo not shown) [Compound 15]	37.5	Infection in % at an active compound concentration of 0.00025% (Erysiphe cicohiacearum): 12%; MIC (Torulopsis glabrata): 1 µg/mL (≈ 2.35 µM)
< 1	> 64	8 (≈ 17.4 µM)	4 (≈ 8.68 µM)	> 64	OC(c1ccc(Cl)cc1Cl)C(Oc1ccc(-c2ccc(Cl)cc2)cc1)n1cncn1 (stereo not shown) [Compound 16]	37.5	MIC (Torulopsis glabrata): 1 µg/mL (≈ 2.17 µM)
					CC(C)(C)C(=O)C(Oc1ccc(Cl)cc1)n1cncn1 (stereo not shown) [D, reference compound]		Infection in % at an active compound concentration of 0.001% (Podosphaera leucotricha): 42%; MIC (Trichophyton mentagr.): 4 µg/mL (≈ 13.6 µM); MIC (Aspergillus species): 100 µg/mL (≈ 340 µM); MIC (Candida albicans): 40 µg/mL (≈ 136 µM); MIC (Microsporon felineum): 100 µg/mL (≈ 340 µM); MIC (Penicillium commune): > 100 µg/mL
					CC(C)(C)C(O)C(Oc1ccc(-c2ccccc2)cc1)n1cncn1 (stereo not shown) [E, reference compound]		Infection in % at an active compound concentration of 0.00025% (Erysiphe cicohiacearum): 62%
4 (≈ 12.2 µM)	100 (≈ 305 µM)	40 (≈ 122 µM)	100 (≈ 305 µM)	> 100	CC(C)(C)C(=O)C(Oc1ccc(Cl)cc1Cl)n1cncn1 (stereo not shown) [F, reference compound]		
				> 100	O=C(c1ccc(Cl)cc1)C(Oc1ccc(Cl)cc1Cl)n1cncn1 (stereo not shown) [G, reference compound]		
4 (≈ 12.5 µM)	> 64	64 (≈ 200 µM)	64 (≈ 200 µM)	> 64	COC(=O)c1ccc(OC(C(O)C(C)(C)C)n2cncn2)cc1 (stereo not shown) [H, reference compound]		
64 (≈ 203 µM)		64 (≈ 203 µM)		> 64	OC(c1ccccc1)C(Oc1ccc(Cl)cc1)n1cncn1 (stereo not shown) [K, reference compound]		

SMILES	MIC (Trichophyton mentagr.; [2]) [µg/mL]	MIC (Aspergillus species; [2]) [µg/mL]	MIC (Candida albicans; [2]) [µg/mL]	MIC (Microsporon felineum; [2]) [µg/mL]	MIC (Penicillium commune; [2]) [µg/mL]	Infection in % of the untreated control [1] [%]	other results
Cl.O=C(c1ccc(Cl)cc1Cl)C(Oc1ccc(Cl)cc1)n1cncn1 (stereo not shown) [Compound 2, 1-(4-Chlorophenoxy)-2-(2,4-dichlorophenyl)-1-(1,2,4-triazol-1-yl)-ethan-2-one hydrochloride]	4	> 64	32	32	> 64	0.0	Infection in % of the untreated control (Puccinia recondita): 12.5%; Infection in % at an active compound concentration of 0.001% (Podosphaera leucotricha): 25%; Infection in % at an active compound concentration of 0.00025% (Erysiphe cicohiacearum): 12%
O=C(c1ccc(Cl)cc1Cl)C(Oc1ccc(-c2ccccc2)cc1)n1cncn1 (stereo not shown) [Compound 5]	< 1	> 64	32 (≈ 75.4 µM)		> 64		Infection in % of the untreated control (Puccinia recondita): 10.0%; MIC (Torulopsis glabrata): 32 µg/mL (≈ 75.4 µM)
